Results reported in patent publication US20240024479A1, “NK CELLS OR T CELLS EXPRESSING CHIMERIC HEMATOPOIETIC GROWTH FACTOR RECEPTORS AND METHODS OF USE” (The United States of America, as represented by the …, priority 2020, published 2024).

How the values were obtained:
GFP+ c-MPL+ NK cells = assay: Competitive expansion of c-MPL-transduced primary NK cells; assay type: cell-based, human; conditions: day 6
Experimental: (§1) In vitro cell expansion cultures: The NK-92 (5×10^4 cell/ml) and KHYG-1 (1×10^4 cell/ml) cells were cultured in 1 ml of complete medium in 24-well plate. […] Trypan blue negative cells were counted every other day. […] For competitive primary NK and T cell expansion assay, all transduced cells (5×10^5/ml for NK and 4×10^5/ml for T cell) containing a mixture of GFP positive (transduced) and GFP negative (untransduced) cells were plated on day 0. Fresh medium with appropriate supplements was replaced every other day for NK cells and only on day 3 for T cell experiment. Viable cells were counted and percentage of GFP^+ cells was acquired on indicated days (NK: day 4 and 6, T: day 3 and 6). The fold change of GFP^+ cells was calculated by multiplying the counted cell number times the fraction GFP^+.

GFP+ MPL+ population = assay: Parallel in vitro cultures of the mixed transduced NK cells; assay type: cell-based, human; conditions: only TPO
[1] = tested on: c-MPL transduced NK cells; assay: Proliferation of c-MPL-expressing human NK cells with thrombopoietin mimetics; assay type: cell-based; conditions: 4-5 days culture
Experimental: FIGS. 16A-16C show proliferation of human NK cells transduced to express GFP and c-MPL cultured for 4-5 days with the indicated concentrations of thrombopoietin (FIG. 16A), romiplostim (FIG. 16B), or eltrombopag (FIG. 16C). […] Mean and SEM of results from 3 blood donors are shown.
NK cells from PBMC from three blood donors were stimulated and transduced to express GFP and c-MPL, then were cultured for 4-5 days with thrombopoietin, romiplostim, or eltrombopag.

c-MPL transduced T cells = assay: Competitive expansion of c-MPL-transduced primary T cells; assay type: cell-based, human
Experimental: as §1

K562 = assay: Flow cytometry based killing assay, c-MPL+ NK-92 effectors vs K562; assay type: cell-based, human; conditions: c-MPL+ NK-92 with TPO administration
Experimental: (§2) The target cells were labeled with 1 μM cell trace violet in some experiments (Thermo Fisher Scientific). The effector and target cells were incubated together in duplicate wells at specific E:T ratio in complete medium without cytokines for 4 hours (total cell number: 200,000 to 250,000 per well in 96-well plate). 7-AAD and Sphero AccuCount Fluorescent particles (Spherotech, IL) were added before analysis by flow cytometry. The absolute number of viable 7-AAD negative target cells was calculated according to bead numbers added (Cooper et al., Leukemia 32:1970-1983, 2018). The percentage of dead cells was calculated relative to target cell only control wells.

[2] = tested on: untransduced control cells; assay: Degranulation assay and cytokine production, untransduced control cells; assay type: cell-based, human; conditions: TPO administration
Experimental: To examine degranulation, cells were washed after two hours and stained with anti-CD107a (H4A3) (BioLegend). To assay cytokine production, GolgiPlug and GolgiStop (BD Biosciences) were added at manufacturer's recommended concentrations within the first hour of co-culture with K562. After 4 hours, cells were washed and stained for cell surface markers, then stained intracellularly with mAb recognizing TNF-α (Mab 11) and IFN-γ (B27) (BD Biosciences).

c-MPL+ NK-92 cells [3] = assay: Short-term expansion and apoptosis assay, c-MPL+ NK-92; assay type: cell-based, human; conditions: TPO plus LD IL-2 vs LD IL-2 alone; day 3
Experimental: as §1
Staining was performed in phosphate-buffered saline (PBS) with 2% FBS and 2 mM EDTA and analyzed on a BD LSRFortessa machine. If intracellular staining was required, BD cytofix/cytoperm (BD Biosciences) was applied for cell fixation and permeabilization after surface staining. The apoptosis assay was performed using PE annexinV apoptosis detection kit (BD Biosciences). The data were analyzed on FlowJo software.

721.221 = assay: Flow cytometry based killing assay, c-MPL+ NK-92 effectors vs 721.221; assay type: cell-based, human; conditions: c-MPL+ NK-92 with TPO administration
Experimental: as §2

c-MPL+ NK-92 cells [4] = assay: In vitro cell expansion of c-MPL+ NK-92 cells; assay type: cell-based, human; conditions: day 8
Excerpt: (§3) Lentiviral production and transduction: Lentivirus gene expression vectors encoding EGFP-P2A linker-human EPOR or EGFP-P2A-human c-MPL were cloned according to our design by VectorBuilder (TX, USA). Plasmid DNA for the above and pCMV-dR8.2 dvpr and pCMV-VSV-G packaging plasmids was purified using ZymoPUREII-EndoZero plasmid maxiprep kit (Zymo Research, CA). Lentiviral particles were generated with HEK293T cells and Lipofectamine3000 reagent (Thermo Fisher Scientific, MA) following the manufacturers' instructions. Viral supernatant was harvested at 24 and 48 hours, pooled, and concentrated with lenti-X concentrator (Takara Bio, Japan) or by centrifugation at 18,600 rpm for 2 hours at 4° C. […] After 5 days post-transduction, cells were stained and sorted with fluorescence-activated cell sorting (FACS) using a BD FACSAria II to purify GFP^+EPOR^+ and GFP^+c-MPL^+ NK cell populations.
(§4) In vitro cell expansion cultures: The NK-92 (5×10^4 cell/ml) and KHYG-1 (1×10^4 cell/ml) cells were cultured in 1 ml of complete medium in 24-well plate. […] Trypan blue negative cells were counted every other day. […] Viable cells were counted and percentage of GFP^+ cells was acquired on indicated days (NK: day 4 and 6, T: day 3 and 6). The fold change of GFP^+ cells was calculated by multiplying the counted cell number times the fraction GFP^+.

Raji tumor cells = assay: Flow cytometry based killing assay, c-MPL+ NK-92 effectors vs Raji; assay type: cell-based, human; conditions: c-MPL+ NK-92 exposed to TPO+LD IL-2, 4 hours
Experimental: as §2

c-MPL+ KHYG-1 cells = assay: In vitro cell expansion of c-MPL+ KHYG-1 cells; assay type: cell-based, human
Excerpt: as §3, §4

TPO: recombinant human thrombopoietin, ligand of the c-MPL receptor; 50 ng/ml rhTPO (R&D)
fold change of GFP+ c-MPL+ NK cells (GFP+ c-MPL+ NK cells; TPO plus 10 U/ml LD IL-2): 24.3 fold | fold change of GFP+ c-MPL+ NK cells (GFP+ c-MPL+ NK cells; TPO+25 U/ml IL-2): 34.1 fold | GFP+ MPL+ population in parallel cultures (GFP+ MPL+ population): 31% | proliferation of c-MPL transduced NK cells [1]: induce proliferation | GFP fold-expansion of c-MPL transduced T cells (c-MPL transduced T cells; D6, TPO alone): 5.96 fold | GFP fold-expansion of c-MPL+ activated T cells (c-MPL transduced T cells; day 6, TPO plus LD IL-2): 11.39 fold | killing of K562 tumor targets (K562): no significant killing augmentation | degranulation or cytokine production of untransduced control cells [2]: no measured effects | proportion of dead/apoptotic cells (c-MPL+ NK-92 cells [3]): significantly lower proportions of dead/apoptotic cells | killing of 721.221 tumor targets (721.221): no significant killing augmentation | fold expansion of c-MPL+ NK-92 cells (c-MPL+ NK-92 cells [4]; TPO alone): 7 fold | fold expansion of c-MPL+ NK-92 cells (c-MPL+ NK-92 cells [4]; TPO plus 1 U/ml IL-2): 23.25 fold | mean percentage of dead Raji cells (Raji tumor cells; E:T 1:1): 84% | mean percentage of dead Raji cells (Raji tumor cells; E:T 10:1): 85% | cell growth of transduced KHYG-1 cells (c-MPL+ KHYG-1 cells; TPO alone): insufficient to maintain cell growth | proliferative response of receptor-transduced KHYG-1 NK cells (c-MPL+ KHYG-1 cells; TPO with low-dose IL-2 (1 U/ml or 5 U/ml)): synergized
